Experimental data from US20240270701A1, “BETA ADRENERGIC AGONIST AND METHODS OF USING THE SAME” (Curasen Therapeutics, Inc., priority 2021, published 2024).
Read-outs that look alike come from different tables or passages of the source.

Key:
[1] = target: T1, B1-AR (Homo sapiens, UniProt P08588); test: cAMP Gs dynamic HTRF assay, cells expressing beta-adrenergic receptor (CHO-K1), B1-AR; type: cell-based; settings: for EC50: cAMP HTRF, read-out: pEC50 [B1-AR] (converted); for Emax: relative to full agonist isoproterenol, read-out: Emax (% iso) (%) [B1-AR]
T1 construct: expressed in transfected cells; host or cells: CHO-K1
T1 sequence (P08588 whole entry, species assumed): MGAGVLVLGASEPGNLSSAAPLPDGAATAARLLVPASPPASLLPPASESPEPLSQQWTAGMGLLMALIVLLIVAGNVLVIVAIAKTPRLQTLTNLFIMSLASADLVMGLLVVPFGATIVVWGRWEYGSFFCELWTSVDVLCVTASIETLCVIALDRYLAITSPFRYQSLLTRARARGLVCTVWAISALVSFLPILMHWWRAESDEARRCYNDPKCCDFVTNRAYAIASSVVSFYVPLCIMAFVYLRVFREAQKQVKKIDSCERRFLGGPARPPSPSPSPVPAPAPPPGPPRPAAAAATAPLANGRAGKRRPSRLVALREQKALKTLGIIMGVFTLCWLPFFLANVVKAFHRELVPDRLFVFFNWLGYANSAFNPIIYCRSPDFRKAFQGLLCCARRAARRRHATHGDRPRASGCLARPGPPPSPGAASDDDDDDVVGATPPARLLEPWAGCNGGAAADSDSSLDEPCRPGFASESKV
Protocol: (§1) cAMP homogeneous time-resolved fluorescence (HTRF): experimental methods. Compound efficacy is determined using the cAMP Gs dynamic HTRF assay (Cisbio, catalog #62AM4PEC) largely following the manufacturer's instructions, also detailed below.
(§2) Standard serial dilution curves are 10-point, 5-fold dilutions starting from a highest concentration of 10 μM. Controls present on every assay plate are 0.1% DMSO (vehicle control), 1 μM isoproterenol (full beta-adrenergic agonist control) and […] xamoterol (partial beta-adrenergic agonist control). […] Assay plates are centrifuged at 500×g for 10 seconds. Compounds and IBMX are prepared at 2× final dose to compensate for addition of cells.
(§3) Cell preparation: 1× stimulation buffer, washing PBS (Dulbecco's phosphate-buffered saline, − Mg − Ca; Caisson Labs, catalog #PBL01), assay PBS (Dulbecco's phosphate-buffered saline, + Mg, + Ca; Caisson Labs, catalog #PBL02) and Versene (0.02% EDTA disodium salt solution in PBS without calcium or magnesium; Caisson Labs, catalog #EDL01) are pre-warmed to 37° C. Cells expressing beta-adrenergic receptor were washed in washing PBS to remove growth medium and then released from the surface by incubating with Versene for 5-10 minutes at 37° C. Cells are harvested using assay PBS, counted manually by hemocytometer or by an automated cell counter, pelleted by centrifugation (200×g, 5 minutes) and resuspended in 37° C. 1× stimulation buffer to a final density of 1.5×10^6 cells/mL. 5 μL of the suspended cell solution (7500 cell total) are added to all wells of the 384 well assay plate, the assay plate was covered with an Axygen® plate seal (Corning PCR-SP) and incubated in a humidified 37° C. environment supplemented with 5% CO2 for 30 minutes.
(§4) HTRF reagent addition, reading and data analysis: After 30 minutes of cell stimulation with test compound, the assay plates are centrifuged at 500×g for 10 seconds, and incubation was stopped with the addition of 5 μL cAMP-D2 acceptor, diluted 1:21 in detection and lysis buffer 2 (Cisbio 62CL2FDF) was added to all cells. Subsequently, 5 μL Anti-cAMP-Eu Donor, diluted 1:21 in detection and lysis buffer 2, was added to cells. Plates were sealed and reactions gently ‘vortexed’ at 900 rpm on a Heidolph Titramax 1000 for at least 30 minutes at room temperature. Plates are centrifuged again at 500×g for 10 seconds, and HTRF was measured using a Tecan Spark plate reader at 50 flashes per well. […] Potency estimates (EC50 and pEC50) are derived from the four-parameter nonlinear regression of the concentration-effect curve and an estimate of relative efficacy is determined by comparing the magnitude of the test compound HTRF signal window (min−max dose) with the signal window of the full agonist control, isoproterenol.

[2] = target: T2, B2-AR (Homo sapiens, UniProt P07550); test: cAMP Gs dynamic HTRF assay, cells expressing beta-adrenergic receptor (CHO-K1), B2-AR; type: cell-based; settings: for Emax: relative to full agonist isoproterenol, read-out: Emax (% iso) (%) [B2-AR]; for EC50: cAMP HTRF, read-out: pEC50 [B2-AR] (converted)
T2 construct: expressed in transfected cells; host or cells: CHO-K1
T2 sequence (P07550 whole entry, species assumed): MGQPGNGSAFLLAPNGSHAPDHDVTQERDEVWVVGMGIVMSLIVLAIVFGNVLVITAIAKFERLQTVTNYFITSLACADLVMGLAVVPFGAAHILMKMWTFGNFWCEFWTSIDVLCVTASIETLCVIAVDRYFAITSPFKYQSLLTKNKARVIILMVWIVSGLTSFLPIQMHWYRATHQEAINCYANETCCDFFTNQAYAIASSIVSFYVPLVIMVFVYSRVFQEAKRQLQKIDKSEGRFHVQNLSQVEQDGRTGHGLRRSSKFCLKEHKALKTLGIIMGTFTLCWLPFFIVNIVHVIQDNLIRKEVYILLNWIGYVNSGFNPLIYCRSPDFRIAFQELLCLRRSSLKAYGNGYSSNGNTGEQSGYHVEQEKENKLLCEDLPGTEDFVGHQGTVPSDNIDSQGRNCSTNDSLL
Protocol: as §1, §2, §3, §4

SMILES	EC50 [1] [nM]	Emax [1] [%]	Emax ([2]; CHO-K1, CHO-K1 cells) [%]	EC50 ([2]; CHO-K1 cells) [nM]	Emax ([2]; CHO-K1 cells) [%]
Cc1ccc([C@@H](O)CNC(C)(C)C)c2c(F)n[nH]c12 [I-60]	< 10	70 to 90	70 to 90	< 10	–
CC(C)C(C)(C)NC[C@H](O)c1cccc2[nH]ncc12 [I-29]	10 to 100	> 90	> 90	< 10	–
O[C@@H](CNC1CC1)c1cccc2[nH]nc(Cl)c12 [I-98]	10 to 100	70 to 90	–	< 10	70 to 90
Cc1nc(N)c(Cl)cc1[C@@H](O)CNC1COC1 [I-146]	> 1000	< 50	–	> 1000	> 90
CC(C)(C)NC[C@H](O)c1ccc2ncncc2c1 [I-77]	> 1000	50 to 70	50 to 70	100 to 1000	–
CC(C)(C)NC[C@H](O)c1cccc2[nH]c(=O)sc12 [I-147]	< 10	70 to 90	–	< 10	> 90
CC(C)(C)NC[C@H](O)c1cnc(N)s1 [I-86]	> 1000	70 to 90	70 to 90	100 to 1000	–
CC(C)(C)NC[C@H](O)c1cc(C(F)F)cc2[nH]ncc12 [I-123]	> 1000	70 to 90	70 to 90	100 to 1000	–
O[C@@H](CNC1CCC1)c1cccc2[nH]nc(Cl)c12 [I-97]	10 to 100	70 to 90	–	< 10	> 90
CC(C)(C)NC[C@H](O)c1cccc2[nH]nc(C(F)F)c12 [I-175]	100 to 1000	70 to 90	–	100 to 1000	70 to 90
Cc1ncccc1[C@@H](O)CNC1(C)CC1 [I-188]	100 to 1000	> 90	> 90	10 to 100	–
CC(C)(C)NC[C@@H](O)c1cccc(Br)n1 [I-143]	100 to 1000	70 to 90	50 to 70	> 1000	–
CC(C)(C)NC[C@H](O)c1cc(F)c(Cl)c2[nH]ncc12 [I-58]	< 10	70 to 90	70 to 90	< 10	–
Cc1nc(N)c(Cl)cc1[C@@H](O)CNC1CC(F)(F)C1 [I-178]	> 1000	50 to 70	> 90	100 to 1000	–
CC(C)(CO)NC[C@H](O)c1cncc2[nH]ncc12 [I-162]	> 1000	> 90	–	100 to 1000	> 90
CC(C)NC[C@H](O)c1ccc(Cl)c2[nH]ncc12 [I-122]	< 10	70 to 90	70 to 90	< 10	–
COc1ccnc2ccc([C@@H](O)CNC(C)(C)C)cc12 [I-74]	100 to 1000	< 50	< 50	> 1000	–
Cc1cc([C@@H](O)CNC(C)(C)C)cc2cccnc12 [I-71]	100 to 1000	50 to 70	–	10 to 100	< 50
CC[C@H](C)NC[C@H](O)c1cc(F)cc2[nH]ncc12 [I-34]	< 10	> 90	–	< 10	70 to 90
Cn1nc(F)c2c([C@@H](O)CNC(C)(C)C)cccc21 [I-55]	< 10	70 to 90	–	< 10	50 to 70
CC(C)(C)CNC[C@H](O)c1cc(C#N)cc2[nH]ncc12 [I-69]	> 1000	50 to 70	70 to 90	100 to 1000	–
COc1ccc(C[C@@H](C)NC[C@H](O)c2ccc(F)c3[nH]ncc23)cc1 [I-17]	< 10	> 90	–	< 10	> 90

SMILES	EC50 [1] [nM]	Emax [1] [%]	Emax ([2]; CHO-K1, CHO-K1 cells) [%]	EC50 ([2]; CHO-K1 cells) [nM]	Emax ([2]; CHO-K1 cells) [%]
CC(C)(C)NC[C@H](O)c1ccc(OC(F)F)c2[nH]ncc12 [I-102]	100 to 1000	50 to 70	< 50	< 10	–
CC(C)(C)CNC[C@H](O)c1ccc(Cl)c2[nH]ncc12 [I-68]	10 to 100	70 to 90	–	< 10	70 to 90
CCC(C)(C)NC[C@H](O)c1cccc2[nH]nc(C)c12 [I-54]	100 to 1000	70 to 90	–	10 to 100	70 to 90
CC(C)(C)CNC[C@H](O)c1cc(F)cc2[nH]ncc12 [I-92]	10 to 100	70 to 90	> 90	< 10	–
CCC(C)(C)NC[C@H](O)c1cccc2[nH]nc(F)c12 [I-48]	< 10	> 90	> 90	< 10	–
CC1(NC[C@H](O)c2cccc3[nH]nc(Cl)c23)CCC1 [I-96]	< 10	70 to 90	–	< 10	> 90
CC(C)NC[C@H](O)c1cccc2[nH]nc(Cl)c12 [I-101]	< 10	> 90	–	< 10	> 90
Cc1cc([C@@H](O)CNC2CCC2)c2cn[nH]c2c1 [I-136]	< 10	> 90	> 90	< 10	–
CC(C)CNC[C@H](O)c1ccc2[nH]cc(F)c2c1 [I-124]	> 1000	70 to 90	> 90	100 to 1000	–
O[C@@H](CNC1CC1)c1ccc(Cl)c2[nH]ncc12 [I-121]	< 10	50 to 70	70 to 90	< 10	–
CC(C)(C)NC[C@H](O)c1cccc2[nH]nc(C3CC3)c12 [I-125]	100 to 1000	70 to 90	–	100 to 1000	70 to 90
CC(C)(CO)NC[C@H](O)c1cccc2[nH]cc(F)c12 [I-109]	10 to 100	> 90	–	10 to 100	> 90
CC(C)(CO)NC[C@H](O)c1ccc(Cl)c2[nH]ncc12 [I-116]	10 to 100	70 to 90	70 to 90	< 10	–
Cc1nc(N)c(Cl)cc1[C@@H](O)CNC(CO)CO [I-145]	> 1000	70 to 90	–	> 1000	70 to 90
CCC(C)(CC)NC[C@H](O)c1cccc2[nH]ncc12 [I-23]	< 10	> 90	–	< 10	> 90
CC(C)NC[C@H](O)c1cc(C#N)cc2[nH]ncc12 [I-161]	10 to 100	> 90	–	10 to 100	> 90
CC(C)(C)NC[C@H](O)c1ccc2nccnc2c1 [I-83]	10 to 100	70 to 90	–	10 to 100	50 to 70
CC1(NC[C@H](O)c2cccc3[nH]cc(F)c23)CC1 [I-107]	< 10	> 90	> 90	< 10	–
CC(C)(NC[C@H](O)c1cccc2[nH]ncc12)C1CC1 [I-12]	< 10	> 90	–	< 10	> 90
CC(C)(C)NC[C@H](O)c1cc2cccnc2cc1Cl [I-80]	100 to 1000	70 to 90	< 50	10 to 100	–
C[C@@H](NC[C@H](O)c1ccc(F)c2[nH]ncc12)C1CC1 [I-10]	< 10	70 to 90	> 90	< 10	–
CC(C)(C)NC[C@H](O)c1ccc(Cl)c2[nH]nc(F)c12 [I-189]	< 10	> 90	70 to 90	< 10	–
